Tests used:
Conditions in all cases: incubation time: 72 h
SK-BR-3 [1] = assay: normalised viability (% of control), CellTiter-Blue; higher = more viable cells (100 = DMSO, 0 = benzethonium chloride kill control)
Experimental: (§1)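 DSRT, CellTiter-Blue viability, 72 h incubation. Signal is normalised to DMSO and benzethonium chloride controls. Value is the normalised response at dose 1.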

MDA-MB-468 [2] = assay: as above
Experimental: as §1

BT-549 [3] = assay: as above
Experimental: as §1

BT-474 [4] = assay: as above
Experimental: as §1

HCC1143 [5] = assay: as above
Experimental: as §1

HDQ-P1 [6] = assay: as above
Experimental: as §1

Hs578T [7] = assay: as above
Experimental: as §1

CAL-85-1 [8] = assay: as above
Experimental: as §1

HCC1937 [9] = assay: as above
Experimental: as §1

MDA-MB-436 [10] = assay: as above
Experimental: as §1

DU-4475 [11] = assay: as above
Experimental: as §1

CAL-120 [12] = assay: as above
Experimental: as §1

MDA-MB-453 [13] = assay: as above
Experimental: as §1

HCC1599 [14] = assay: as above
Experimental: as §1

MFM-223 [15] = assay: as above
Experimental: as §1

MDA-MB-231 [16] = assay: as above
Experimental: as §1

CAL-148 [17] = assay: as above
Experimental: as §1

CAL-51 [18] = assay: as above
Experimental: as §1

SK-BR-3 [19] = assay: normalised response (% of control), CellTiter-Glo; higher = more viable cells (100 = DMSO, 0 = benzethonium chloride kill control)
Outline: (§2)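 Two readouts were taken after 72 h: CellTox Green fluorescence (485/520 nm) first, then CellTiter-Glo luminescence after 10 min at room temperature. Breast cancer cell lines had been seeded as 20 µl suspension into 384-well plates holding compound at 5 concentrations in 10-fold steps across a compound-specific 10,000-fold range. Each value is a normalised signal at a single concentration, with plates scaled to 0.1 % DMSO (100) and a positive kill control (0).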

MDA-MB-468 [20] = assay: as above
Outline: as §2

BT-549 [21] = assay: as above
Outline: as §2

BT-474 [22] = assay: as above
Outline: as §2

HCC1143 [23] = assay: as above
Outline: as §2

HDQ-P1 [24] = assay: as above
Outline: as §2

Hs578T [25] = assay: as above
Outline: as §2

CAL-85-1 [26] = assay: as above
Outline: as §2

HCC1937 [27] = assay: as above
Outline: as §2

MDA-MB-436 [28] = assay: as above
Outline: as §2

DU-4475 [29] = assay: as above
Outline: as §2

CAL-120 [30] = assay: as above
Outline: as §2

MDA-MB-453 [31] = assay: as above
Outline: as §2

HCC1599 [32] = assay: as above
Outline: as §2

MFM-223 [33] = assay: as above
Outline: as §2

MDA-MB-231 [34] = assay: as above
Outline: as §2

CAL-148 [35] = assay: as above
Outline: as §2

CAL-51 [36] = assay: as above
Outline: as §2

MCF-10A = assay: as above
Outline: as §2

| SMILES | normalised viability (SK-BR-3 [1]) [%] | normalised viability (MDA-MB-468 [2]) [%] | normalised viability (BT-549 [3]) [%] | normalised viability (BT-474 [4]) [%] | normalised viability (HCC1143 [5]) [%] | normalised viability (HDQ-P1 [6]) [%] | normalised viability (Hs578T [7]) [%] | normalised viability (CAL-85-1 [8]) [%] | normalised viability (HCC1937 [9]) [%] | normalised viability (MDA-MB-436 [10]) [%] | normalised viability (DU-4475 [11]) [%] | normalised viability (CAL-120 [12]) [%] | normalised viability (MDA-MB-453 [13]) [%] | normalised viability (HCC1599 [14]) [%] | normalised viability (MFM-223 [15]) [%] | normalised viability (MDA-MB-231 [16]) [%] | normalised viability (CAL-148 [17]) [%] | normalised viability (CAL-51 [18]) [%] | normalised response (SK-BR-3 [19]) [%] | normalised response (MDA-MB-468 [20]) [%] | normalised response (BT-549 [21]) [%] | normalised response (BT-474 [22]) [%] | normalised response (HCC1143 [23]) [%] | normalised response (HDQ-P1 [24]) [%] | normalised response (Hs578T [25]) [%] | normalised response (CAL-85-1 [26]) [%] | normalised response (HCC1937 [27]) [%] | normalised response (MDA-MB-436 [28]) [%] | normalised response (DU-4475 [29]) [%] | normalised response (CAL-120 [30]) [%] | normalised response (MDA-MB-453 [31]) [%] | normalised response (HCC1599 [32]) [%] | normalised response (MFM-223 [33]) [%] | normalised response (MDA-MB-231 [34]) [%] | normalised response (CAL-148 [35]) [%] | normalised response (CAL-51 [36]) [%] | normalised response (MCF-10A) [%] |
| --- | --- | --- | --- | --- | --- | --- | --- | --- | --- | --- | --- | --- | --- | --- | --- | --- | --- | --- | --- | --- | --- | --- | --- | --- | --- | --- | --- | --- | --- | --- | --- | --- | --- | --- | --- | --- | --- |
| COc1ccc(S(=O)(=O)Nc2cccnc2Nc2ccc(O)cc2)cc1 [ABT-751] (1 nM) | 87.2 | 102 | 110 | 100 | 95.5 | 114 | 105 | 88.4 | 90.3 | 85.8 | 96.5 | 84.7 | 90.5 | 90 | 92.1 | 95.8 | 96.9 | 109 | 84.4 | 98.4 | 109 | 98.9 | 96.1 | 96.8 | 101 | 94.6 | 96.5 | 93 | 103 | 95.8 | 95.2 | 95.8 | 93.9 | 104 | 97.6 | 108 | 91.5 |
| CO[C@@]12[C@H](COC(N)=O)C3=C(C(=O)C(C)=C(N)C3=O)N1C[C@@H]1N[C@@H]12 [Mitomycin C] (1 nM) | 90.3 | 94.3 | 87.3 | 86.7 | 98.8 | 118 | 134 | 96.3 | 106 | 96.9 | 104 | 93.9 | 102 | 94.8 | 91.1 | 87.4 | 109 | 110 | 100 | 90.4 | 105 | 92.3 | 96 | 98.8 | 101 | 99.7 | 94.6 | 82.4 | 95.1 | 94.3 | 97.5 | 72.6 | 93.9 | 95.1 | 95.3 | 82.6 | 93.2 |
| CC(C)C[C@H](NC(=O)[C@@H](COC(C)(C)C)NC(=O)[C@H](Cc1ccc(O)cc1)NC(=O)[C@H](CO)NC(=O)[C@H](Cc1c[nH]c2ccccc12)NC(=O)[C@H](Cc1cnc[nH]1)NC(=O)[C@@H]1CCC(=O)N1)C(=O)N[C@@H](CCCNC(=N)N)C(=O)N1CCC[C@H]1C(=O)NNC(N)=O [Goserelin] (1 nM) | 93.3 | 91.7 | 93.1 | 82.1 | 94.3 | 111 | 106 | 87.7 | 86.5 | 102 | 99.3 | 104 | 102 | 114 | 96 | 103 | 109 | 110 | 96.8 | 101 | 105 | 99.2 | 96.7 | 97.3 | 96.1 | 96.4 | 92.7 | 102 | 95.1 | 99.6 | 108 | 96 | 96.7 | 103 | 84.5 | 122 | 94.8 |
| COc1cc(Nc2c(C#N)cnc3cc(OCCCN4CCN(C)CC4)c(OC)cc23)c(Cl)cc1Cl [Bosutinib] (1 nM) | 106 | 112 | 111 | 116 | 94 | 108 | 110 | 88.8 | 80.1 | 113 | 105 | 84.3 | 113 | 103 | 93.1 | 100 | 94.8 | 112 | 104 | 101 | 98.4 | 98.8 | 93 | 99.6 | 95.6 | 96.4 | 97.3 | 96.6 | 101 | 92.6 | 101 | 112 | 99.3 | 93.1 | 104 | 99.9 | 99.9 |
| CC1(C)CCC(c2ccc(Cl)cc2)=C(CN2CCN(c3ccc(C(=O)NS(=O)(=O)c4ccc(N[C@H](CCN5CCOCC5)CSc5ccccc5)c(S(=O)(=O)C(F)(F)F)c4)cc3)CC2)C1 [Navitoclax] (1 nM) | 78.4 | 90.2 | 103 | 88.9 | 81.6 | 67 | 99.2 | 79.1 | 88.2 | 59.8 | 88.6 | 73.8 | 83.4 | 90.9 | 69.9 | 84.6 | 99.2 | 109 | 92.4 | 95.1 | 102 | 95.7 | 88.7 | 106 | 97.6 | 91.8 | 98.2 | 95.6 | 101 | 94 | 94.4 | 98.6 | 93.8 | 99.2 | 90.3 | 74.1 | 93.5 |
| Cn1cc(C2=C(c3cn(C4CCN(Cc5ccccn5)CC4)c4ccccc34)C(=O)NC2=O)c2ccccc21 [Enzastaurin] (1 nM) | 92.5 | 99 | 113 | 105 | 92.5 | 107 | 98.2 | 86.3 | 97.2 | 130 | 108 | 86.2 | 96.4 | 104 | 82.1 | 87.5 | 98.9 | 114 | 109 | 104 | 102 | 96.4 | 96.6 | 96.8 | 105 | 105 | 96.9 | 94.2 | 101 | 98.3 | 109 | 102 | 103 | 98.5 | 104 | 61.3 | 106 |
